Assay results from US20230109839A1, “THERAPEUTIC AGENT FOR TAUOPATHIES” (SUMITOMO PHARMA CO., LTD., priority 2020, published 2023).
“Also recorded” adds a separate entry of the source.

Columns and labels:
[1] = tested on: rTg4510 mice; assay: Cerebral atrophy in rTg4510 mice, MRI volume of brain regions (Test 5); assay type: in vivo, mouse; conditions: for age-dependent increase in lateral ventricular volume vs non-administration group: mixed diet 3 mg/g-food with ABT 1 mg/g-food; for volume cerebellum / volume cerebral neocortex / volume hippocampus / volume lateral ventricle: 5.8 mg/g-food from the age of 4 months
Source text: Test 5: Evaluation of Intracerebral Tau Aggregate Accumulation and Cerebral Atrophy Using rTg4510 Mice
This test is a test to evaluate the effects of the compounds on intracerebral tau aggregate accumulation and cerebral atrophy. The rTg4510 mice overexpress the human-type FTDP-17 mutant tau in the forebrain, and month-age-dependent intracerebral tau aggregate accumulation and cerebral atrophy are observed. The rTg4510 mice used herein were produced by mating Tg (tauP301L) 4510 mice (Stock No. 015815) and CaMKII-tTA mice (Stock No. 007004) purchased from The Jackson Laboratory and breeding them.
The test compound was administered as a mixed diet to rTg4510 mice from the age of 4 months, and PET scan and MRI were performed at the ages of 4, 6 and 8 months to quantitatively evaluate the amount of the intracerebral tau aggregate accumulated and cerebral atrophy. The PET scan was performed using MicroPET Focus 220 of Siemens Medical Solutions (0.851 mm thick (intercenter) 95 slices, 19.0 cm axial field of view (FOV), and 7.6 cm intra-section FOV). The administration of radioactive compound [^18F] PM-PBB3 (precursor obtained from Aprinoia) and the PET scan were performed in dimly lit after the mice was treated with 1.5% isoflurane anesthesia to avoid […] of the radioactive compound. The emission scan was performed for 60 minutes immediately after the intravenous administration of [^18F] PM-PBB3 (1 mCi) (3D list mode, energy window: 350-750 keV). Then, the list mode data sorted into 3D synograms were converted into 2D synograms by Fourier-rebinding (frames: 4×1, 8×2 and 8×5 minutes). The dynamic image for 60 minutes after the administration of [^18F] PM-PBB3 was reconstructed by a filter-corrected back projection with a 0.5 mm Hanning filter. Regions of interest (ROI) were set in multiple brain regions using PMOD image analysis software (PMOD Technology) with reference to the MRI templates and the PET reconstructed images. Tau aggregate accumulation was evaluated by calculating SUVR (Standardized uptake value ratio) with the cerebellum as a reference region, based on the added average of dynamic images from 40 minutes to 60 minutes.
The evaluation of cerebral atrophy was performed with horizontal superconducting magnet type MRI (7T, inner diameter 400 mm, self-shielding type, zero boil-off type). The imaging was performed under isoflurane anesthesia while maintaining the rectal temperature at 36.5±0.5° C. After Tripilot acquisition, the brain images were acquired by TurboRARE T2 emphasis sequence (TR: 4200 ms, TE: 36 ms, Fat-Sup: on, NA: 4, RARE factor: 8, scan time: 14 min) (FOV read: 25.6 mm, FOV P1: 14.5 mm, Slice thickness: 0.5 mm, number of slices: 28). The ROI of each brain region was set in each of the acquired slices, and the volume of the brain region was calculated by summing the ROI areas of all the slices to evaluate the effect of the test compound.

[2] = tested on: phosphorylated tau oligomer; assay: Evaluation of phosphorylated tau oligomers in brain of APP-Tg mice, Western blotting (Test 4); assay type: in vivo, mouse; conditions: for reducing effect of tau oligomer: with food for 7-10 days, ABT 1 mg/g-food depending on the compound, brain, anti-oligomerized tau antibody TOMA-1
[3] = diet 5.8 mg/g-food from the age of 4 months

## CN(c1ncc2cnn(CC(=O)Nc3ccn4ncnc4c3)c2n1)C1CCCC1 [Example 795, 2-{6-[cyclopentyl(methyl)amino]-1H-pyrazolo[3,4-d]pyrimidin-1-yl}-N-([1,2,4]triazolo[1,5-a]pyridin-7-yl)acetamide]
[1]; at the age of 6 months
  age-dependent increase in lateral ventricular volume vs non-administration group: tendency to suppress
[1]; at the age of 8 months
  age-dependent increase in lateral ventricular volume vs non-administration group: not different
[2]; dose 0.2 mg/g-food, 7-10 days, with ABT 1 mg/g-food
  Reducing effect of phosphorylated tau oligomer: + (0-25%: +)
[2]; dose 2 mg/g-food, 7-10 days, with ABT 1 mg/g-food
  Reducing effect of phosphorylated tau oligomer: +++ (50-75%: +++)
[2]
  reducing effect of tau oligomer: some reducing effect of tau oligomer; also recorded: strong reducing effect of tau oligomer

## CC1CC=C(c2cnc3cnn(CC(=O)Nc4ccn5ncnc5c4)c3n2)CC1 (stereo not drawn) [Example 577, 2-[6-(4-methylcyclohex-1-en-1-yl)-1H-pyrazolo[3,4-b]pyrazin-1-yl]-N-([1,2,4]triazolo[1,5-a]pyridin-7-yl)acetamide]
[1]; mixed diet 0.7 and 6.6 mg/g-food
  suppression of cerebral atrophy: no suppression
[2]; Mus musculus, po, dose 2.2 mg/g-food, 7-10 days, without ABT, read-out: Reducing effect of phosphorylated tau oligomer
  inhibition in vivo at 2.2 mg/g-food: 0 to 25%
[2]; Mus musculus, po, dose 6.6 mg/g-food, 7-10 days, without ABT, read-out: Reducing effect of phosphorylated tau oligomer
  inhibition in vivo at 6.6 mg/g-food: 50 to 75%
[2]
  reducing effect of tau oligomer: some reducing effect of tau oligomer; also recorded: strong reducing effect of tau oligomer

## CC1CCN(c2ccc(=O)n(CC(=O)Nc3ccc(C#N)cc3)n2)CC1 [Example 1, N-(4-Cyanophenyl)-2-[3-(4-methylpiperidin-1-yl)-6-oxopyridazin-1(6H)-yl]acetamide]
[1]; 4 month old
  volume cerebellum: 34.3 ± 0.19 mm^3
  volume cerebral neocortex: 60.1 ± 0.49 mm^3
  volume hippocampus: 14.0 ± 0.13 mm^3
  volume lateral ventricle: 0.79 ± 0.014 mm^3
[1]; 6 month old
  volume cerebellum: 33.9 ± 0.18 mm^3
  volume cerebral neocortex: 50.9 ± 0.98 mm^3
  volume hippocampus: 12.6 ± 0.22 mm^3
  volume lateral ventricle: 1.70 ± 0.312 mm^3
[1]; 8 month old
  volume cerebellum: 33.4 ± 0.33 mm^3
  volume cerebral neocortex: 45.3 ± 1.13 mm^3
  volume hippocampus: 12.7 ± 0.12 mm^3
  volume lateral ventricle: 0.61 ± 0.036 mm^3
[1]; [3]
  age-dependent cerebral atrophy in the cerebral neocortex and hippocampus (volume, FIG. 2): statistically significantly suppressed
  age-dependent increase in the lateral ventricular volume (FIG. 2): statistically significantly suppressed
[1]; diet 5.8 mg/g-food from the age of 4 months, ages 4, 6 and 8 months, vs non-administration group
  cerebral atrophy and enlargement of the lateral ventricle with aging (T2-weighted images, FIG. 1): significantly suppressed
[2]; dose 1.9 mg/g-food, 7-10 days, without ABT
  Reducing effect of phosphorylated tau oligomer: + + +
[2]; dose 5.8 mg/g-food, 7-10 days, without ABT
  Reducing effect of phosphorylated tau oligomer: + + + +
[2]
  reducing effect of tau oligomer: some reducing effect of tau oligomer; also recorded: strong reducing effect of tau oligomer
